Experimental data from patent US11225480B2, “Malic enzyme inhibitors” (SUN PHARMA ADVANCED RESEARCH COMPANY LTD, priority 2019, dated 2022).

Key:
Type in all cases: biochemical
human ME3 enzyme = biological target: T1, human ME3 enzyme (Homo sapiens, UniProt Q16798); assay: ME3 inhibition assay (diaphorase/resazurin coupled fluorescence); settings: 10 μM compound concentration; read-out: Malic Enzyme 3 % inhibition (10 μM)
T1 sequence (Q16798 1-604): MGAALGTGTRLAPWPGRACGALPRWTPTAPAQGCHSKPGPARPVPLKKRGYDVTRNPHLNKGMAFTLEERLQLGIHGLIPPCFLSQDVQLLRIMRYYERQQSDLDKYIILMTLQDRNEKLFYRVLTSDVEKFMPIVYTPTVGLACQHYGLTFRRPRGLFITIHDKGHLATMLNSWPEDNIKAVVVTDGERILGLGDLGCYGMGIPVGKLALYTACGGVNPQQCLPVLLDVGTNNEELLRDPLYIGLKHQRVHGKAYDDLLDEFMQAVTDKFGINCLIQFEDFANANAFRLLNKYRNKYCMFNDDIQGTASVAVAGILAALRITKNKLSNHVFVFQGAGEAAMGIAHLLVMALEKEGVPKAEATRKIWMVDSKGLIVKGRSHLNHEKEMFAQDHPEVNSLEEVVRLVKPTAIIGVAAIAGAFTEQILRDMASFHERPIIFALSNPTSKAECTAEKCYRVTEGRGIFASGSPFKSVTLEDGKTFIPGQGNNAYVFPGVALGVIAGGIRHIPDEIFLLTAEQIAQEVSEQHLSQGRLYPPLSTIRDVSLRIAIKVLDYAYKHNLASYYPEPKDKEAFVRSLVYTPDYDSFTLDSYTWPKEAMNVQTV
Method: ME3 catalyzes the oxidative decarboxylation of malate to pyruvate with conversion of the co-factor β-NADP+ to NADPH. In the fluorescence assay, a coupled reaction is set up wherein an enzyme, Diaphorase, utilizes NADPH generated by ME3, to convert the dye resazurin to a fluorescent molecule resorufin.
The enzyme activity inhibition assay is set up in a 200 μL final reaction volume in a 96-well plate. As per the experimental design, 2 μL of the test compounds at 100× the desired concentration (10 μM) in DMSO were added to the respective wells with 178 μL of assay buffer (50 mM Tris-HCl pH 7.5, 10 mM MnCl2, 3 mM L-malate, 50 μM Resazurin and 0.025 mg/ml Diapharose). The 96-well plate was incubated on a plate shaker at room temperature for 15 minutes protected from light. The well contents were gently mixed by adding 10 μL of 20 nM human ME3 enzyme to the wells and the plate was incubated on a shaker at room temperature for 5 minutes protected from light. Suitable enzyme only and no enzyme controls were included in the experiment. The enzyme reaction was started by adding 10 μL of 1 mM D-NADP+. The reaction was gently mixed and the plate was initially left on a shaker at room temperature for ˜7 minutes protected from light. Later, the plate was incubated without shaking at room temperature for 3 hours. At the end of 3 hours, the fluorescence of the wells was measured at excitation 540 nm and emission 600 nm.

human ME1 enzyme = biological target: T2, human ME1 enzyme (Homo sapiens, UniProt P48163); assay: ME1 inhibition assay (diaphorase/resazurin coupled fluorescence); settings: 10 μM compound concentration; read-out: Malic Enzyme 1 % inhibition (10 μM)
T2 sequence (P48163 1-572): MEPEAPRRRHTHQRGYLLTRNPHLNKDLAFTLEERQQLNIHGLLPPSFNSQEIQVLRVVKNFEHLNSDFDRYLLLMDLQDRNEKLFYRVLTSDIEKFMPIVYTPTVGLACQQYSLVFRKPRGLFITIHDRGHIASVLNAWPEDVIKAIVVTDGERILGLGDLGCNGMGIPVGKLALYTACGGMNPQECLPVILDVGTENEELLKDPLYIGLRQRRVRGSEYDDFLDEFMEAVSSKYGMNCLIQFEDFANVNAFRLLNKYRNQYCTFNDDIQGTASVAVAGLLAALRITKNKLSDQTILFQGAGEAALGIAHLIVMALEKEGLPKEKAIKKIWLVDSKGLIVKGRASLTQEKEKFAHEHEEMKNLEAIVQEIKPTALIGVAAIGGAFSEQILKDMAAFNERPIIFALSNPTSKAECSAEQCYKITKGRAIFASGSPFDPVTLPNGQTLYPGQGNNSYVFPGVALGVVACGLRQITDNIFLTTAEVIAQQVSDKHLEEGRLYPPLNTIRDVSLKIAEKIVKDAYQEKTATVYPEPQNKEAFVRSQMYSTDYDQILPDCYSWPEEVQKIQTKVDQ
Method: (§1) ME1 catalyzes the oxidative decarboxylation of malate to pyruvate with conversion of the co-factor β-NADP+ to β-NADPH. In the fluorescence assay, a coupled reaction is set up where in an enzyme, Diaphorase, utilizes NADPH generated by ME1, to convert the dye resazurin to a fluorescent molecule resorufin. Resorufin has a characteristic fluorescence with excitation/emission at 540/600 nm (SLAS Discov., 2017 April 1:2472555217706649).
The enzyme activity inhibition assay is set up in a 200 μL final reaction volume in a 96-well plate. As per the experimental design, 2 μL of the compounds at 100× the desired concentration (10 μM) in DMSO were added to the respective wells with 178 μL of assay buffer (50 mM Tris-HCl pH 7.5, 10 mM MnCl2, 2 mM L-malate, 10 μM Resazurin and 0.01 mg/ml Diapharose). The 96-well plate was incubated on a plate shaker at room temperature for 15 minutes protected from light. The well contents were gently mixed by adding 10 μL of 20 nM human ME1 enzyme to the wells and the plate was incubated on a shaker at room temperature for 5 minutes protected from light. Suitable ‘enzyme only’ and ‘no enzyme’ controls were included in the experiment. The enzymatic reaction was started by adding 10 μL of 0.3 mM D-NADP+. The reaction was gently mixed and the plate was initially left on a shaker at room temperature for −7 minutes protected from light. Later, the plate was incubated without shaking at room temperature for 2 hours. At the end of 2 hours, the fluorescence of the wells was measured at excitation 540 nm and emission 600 nm. The % enzyme activity of the compounds is obtained by normalizing the data with enzyme only (100%) and no enzyme controls (0%) using GraphPad Prism software 7.04.

human ME2 enzyme = human ME2 enzyme (Homo sapiens, UniProt P23368); assay: ME2 inhibition assay (diaphorase/resazurin coupled fluorescence); settings: 10 μM compound concentration; read-out: Malic Enzyme 2 % inhibition (10 μM)
Sequence of human ME2 enzyme (P23368 19-584): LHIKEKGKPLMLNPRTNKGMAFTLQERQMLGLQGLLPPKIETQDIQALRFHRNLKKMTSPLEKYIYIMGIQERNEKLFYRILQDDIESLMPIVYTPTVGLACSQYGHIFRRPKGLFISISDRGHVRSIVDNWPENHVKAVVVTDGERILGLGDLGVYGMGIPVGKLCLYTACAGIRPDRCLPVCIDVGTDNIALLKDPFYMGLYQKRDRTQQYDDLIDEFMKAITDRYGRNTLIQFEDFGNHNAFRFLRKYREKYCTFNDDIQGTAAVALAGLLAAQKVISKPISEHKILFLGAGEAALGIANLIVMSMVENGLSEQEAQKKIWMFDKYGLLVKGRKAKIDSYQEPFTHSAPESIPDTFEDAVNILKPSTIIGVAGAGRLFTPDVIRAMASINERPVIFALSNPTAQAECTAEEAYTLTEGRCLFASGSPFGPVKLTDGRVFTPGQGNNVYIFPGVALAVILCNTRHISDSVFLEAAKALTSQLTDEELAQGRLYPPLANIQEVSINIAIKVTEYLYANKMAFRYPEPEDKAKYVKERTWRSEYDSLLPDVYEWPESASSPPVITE
Method: as §1, with “ME2” for “ME1”, “β-NAD+” for “β-NADP+”, “β-NADH.” for “β-NADPH.”, “NADH” for “NADPH”, “ME2,” for “ME1,”
The enzyme activity inhibition assay is set up in a 200 μL final reaction volume in a 96-well plate. As per the experimental design, 2 μL of the compounds at 100× the desired concentration (10 μM) in DMSO were added to the respective wells with 178 μL of assay buffer (50 mM Tris-HCl pH 7.5, 10 mM MnCl2, 7 mM L-malate, 50 μM Resazurin and 0.025 mg/ml Diapharose). The 96-well plate was incubated on a plate shaker at room temperature for 15 minutes protected from light. The well contents were gently mixed by adding 10 μL of 60 nM human ME2 enzyme to the wells and the plate was incubated on a shaker at room temperature for 5 minutes protected from light. Suitable ‘enzyme only’ and ‘no enzyme’ controls were included in the experiment. The enzymatic reaction was started by adding 10 μL of 2 mM β-NAD+. The reaction was gently mixed and the plate was initially left on a shaker at room temperature for −7 minutes protected from light. Later, the plate was incubated without shaking at room temperature for 2 hours. At the end of 2 hours, the fluorescence of the wells was measured at excitation 540 nm and emission 600 nm. The % enzyme activity of the compounds is obtained by normalizing the data with enzyme only (100%) and no enzyme controls (0%) using GraphPad Prism software 7.04.

Compound | inhibition at 10 µM (human ME3 enzyme) [%] | inhibition at 10 µM (human ME1 enzyme) [%] | inhibition at 10 µM (human ME2 enzyme) [%]
O=C(CCCc1ccccc1)N1CCN(c2ccc(O)cn2)CC1 [I.65, 1-[4-(5-Hydroxy-pyridin-2-yl)-piperazin-1-yl]-4-phenylbutan-1-one] | > 90 | 70 to 89 | 70 to 89
Cc1[nH]c2ccccc2c1CC(=O)N1CCN(c2ccc(O)cn2)CC1 [I.127, 1-[4-(5-Hydroxy-pyridin-2-yl)-piperazin-1-yl]-2-(2-methyl-1H-indol-3-yl)-ethanone] | > 90 | > 90 | > 90
O=C(c1cn(CC2CC2)c2ccccc2c1=O)N1CCN(c2ccc(O)cn2)CC1 [I.59, 1-(Cyclo-propyl-methyl)-3-[4-(5-hydroxy-2-pyridyl)-piperazine-1-carbonyl]-quinolin-4-one] | > 90 | 70 to 89 | 70 to 89
O=C(Cc1c[nH]c2ccc(Cl)cc12)N1CCN(c2ccc(O)cn2)CC1 [I.159, 2-(5-Chloro-1H-indol-3-yl)-1-[4-(5-hydroxy-pyridin-2-yl)-piperazin-1-yl]-ethanone] | > 90 | > 90 | > 90
COCCOc1ccc(CC(=O)N2CCN(c3ccc(O)cc3)CC2)cc1 [I.5, 1-[4-(4-Hydroxy-phenyl)-piperazin-1-yl]-2-[4-(2-methoxy-ethoxy)-phenyl]-ethanone] | > 90 | > 90 | > 90
O=C(c1c[nH]c2ccc(F)cc12)N1CCN(c2ccc(O)cc2)CC1 [I.156, (5-Fluoro-1H-indol-3-yl)-[4-(4-hydroxy-phenyl)-piperazin-1-yl]-methanone] | > 90 | > 90 | > 90
O=C(O)c1ccc(-c2cc(C(=O)N3CCN(c4ccc(O)cc4)CC3)cc(N3CCOCC3)n2)cc1 [I.42, 4-[4-[4-(4-Hydroxy-phenyl)-piperazine-1-carbonyl]-6-morpholino-2-pyridyl]-benzoic acid] | > 90 | > 90 | > 90
O=C(c1c[nH]c2ccccc2c1=O)N1CCN(c2ccc(O)cc2)CC1 [I.47, 3-[4-(4-Hydroxy-phenyl)-piperazine-1-carbonyl]-1H-quinolin-4-one] | > 90 | > 90 | > 90
O=C(Cc1c[nH]c2cc(F)c(F)cc12)N1CCN(c2ccc(O)cn2)CC1 [I.160, 2-(5,6-Difluoro-1H-indol-3-yl)-1-[4-(5-hydroxy-pyridin-2-yl)-piperazin-1-yl]-ethanone] | > 90 | > 90 | > 90
O=C(CCc1ccc(Cl)c(Cl)c1)N1CCN(c2ccc(O)cn2)CC1 [I.79, 3-(3,4-Dichloro-phenyl)-1-[4-(5-hydroxy-pyridin-2-yl)-piperazin-1-yl]-propan-1-one] | > 90 | > 90 | > 90
O=C(Cc1ccc(C(F)(F)F)cc1)N1CCN(c2ccc(O)cc2)CC1 [I.28, 1-[4-(4-Hydroxy-phenyl)-piperazin-1-yl]-2-(4-trifluoro-methyl-phenyl)-ethanone] | > 90 | > 90 | –
COc1cc(CC(=O)N2CCN(c3ccc(O)cc3)CC2)cc(OC)c1OC [I.3, 1-[4-(4-Hydroxy-phenyl)-piperazin-1-yl]-2-(3,4,5-trimethoxy-phenyl)-ethanone] | > 90 | > 90 | –
COCCOc1ccc(CCC(=O)N2CCN(c3ccc(O)cn3)CC2)cc1 [I.114, 1-[4-(5-Hydroxy-pyridin-2-yl)-piperazin-1-yl]-3-[4-(2-methoxy-ethoxy)-phenyl]-propan-1-one dihydro-chloride] | > 90 | – | –
COc1ccccc1CCC(=O)N1CCN(c2ccc(O)cn2)CC1 [I.109, 1-[4-(5-Hydroxy-pyridin-2-yl)-piperazin-1-yl]-3-(2-methoxy-phenyl)-propan-1-one] | > 90 | – | –
O=C(Cc1ccc(O)cc1)N1CCN(c2ccc(O)cc2)CC1 [I.4, 2-(4-Hydroxy-phenyl)-1-[4-(4-hydroxy-phenyl)-piperazin-1-yl]-ethanone] | > 90 | > 90 | –
O=C(c1cccc2cc3ccccc3cc12)N1CCN(c2ccc(O)cc2)CC1 [I.25, Anthracen-1-yl-[4-(4-hydroxy-phenyl)-piperazin-1-yl]-methanone] | > 90 | – | –
O=C(/C=C/c1ccc(Cl)cc1)N1CCN(c2ccc(O)cn2)CC1 [I.78, (E)-3-(4-Chlorophenyl)-1-[4-(5-hydroxy-pyridin-2-yl)-piperazin-1-yl]-propenone] | > 90 | – | –
